These results are taken from PubChem BioAssay AID608 (Sanford-Burnham Center for Chemical Genomics, 2007).

Active and inactive are the calls of the source. The rule behind the calls is not given here. A value given as a limit tells only on which side of the number the result lay.

Peptidyl-prolyl cis-trans isomerase FKBP1A (Homo sapiens), sequence (P62942 whole entry, looked up): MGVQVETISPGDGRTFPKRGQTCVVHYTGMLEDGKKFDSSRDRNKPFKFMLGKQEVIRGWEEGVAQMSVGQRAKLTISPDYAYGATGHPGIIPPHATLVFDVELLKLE

The test concerns the target Peptidyl-prolyl cis-trans isomerase FKBP1A (Homo sapiens) (UniProt P62942). The test can be described thus: FKBP12 binders, biophysical, NMR detection (AID 608). As to conditions: NMR binding, purified FKBP12.
One may read the Kd as the concentration at which binding is half-saturated. Turning to `NC(=O)CSc1nc2ccccc2o1`, the Kd is > 4 mM (inactive). Regarding `CC(=O)Cc1nsc(NC(=O)c2ccc(C)cc2)n1`, the Kd is > 4 mM (inactive).

As to `NC(=S)NC(=O)CN1C(=O)c2ccccc2C1=O`, the Kd was > 4 mM (inactive). In the case of `NC(=O)NC1NC(=O)NC1=O` (configuration not stated), the Kd was > 4 mM (inactive).

As to `Cc1cc(O)c(C=O)c(O)c1C(=O)O`, the Kd is > 4 mM (inactive). Turning to `O=c1c(-c2cc(O)c(O)c(O)c2)coc2cc(O)c(O)c(O)c12`, the Kd is > 4 mM (inactive).

As to `O=C1CCC(C(=O)NCc2ccc(Cl)cc2)N1` (configuration not stated), the Kd is > 4 mM (inactive).

With `c1ccc(CCc2nc(-c3cccnc3)no2)cc1`, the Kd is > 4 mM (inactive). For `Cc1ccc(-c2ccc(OCC(=O)N3CCOCC3)cc2)cc1`, the Kd entry is “inactive”. Consider `CC(=O)Oc1ccc(-c2nc(-c3cccnc3)no2)cc1`, for which the Kd was > 4 mM (inactive). In the case of `NC1Cc2ccccc2C1`, the Kd is > 4 mM (inactive). With `O=C(Nc1ccccn1)c1cc(-n2cnnc2)ccc1Cl`, the Kd is > 4 mM (inactive). To `CCOC(=O)c1cnn2ccccc12` belongs > 4 mM (inactive). Regarding `O=C(CC1NCCNC1=O)Nc1ccccc1` (configuration not stated), the Kd is > 4 mM (inactive).

As to `CC(=O)O[C@@H]1CC2C(C)(CC[C@H](O)C2(C)C)C2CC[C@]3(C)C(=CC(=O)O[C@H]3c3ccoc3)C21C` (some centres not stated), the Kd is > 4 mM (inactive).

Take `CN(C)CC(O)C1CCOC(C)(C)C1` (configuration not stated): the Kd was > 4 mM (inactive). As to `COC1=CC(=O)C[C@@H](C)[C@]12Oc1c(Cl)c(OC)cc(OC)c1C2=O`, the Kd is > 4 mM (inactive). As for `O=C1c2ccccc2C(=O)N1CCc1ccccn1`, the Kd is > 4 mM (inactive). With `O=CN1CCN(C2CC(=O)N(c3ccccc3)C2=O)CC1` (configuration not stated), the Kd was > 4 mM (inactive). With `COc1ccc(-c2nnc(-c3ccc(N)cc3)o2)cc1`, the Kd is > 4 mM (inactive). With `Nc1nc(=S)n2c(n1)oc1ccccc12`, the Kd is > 4 mM (inactive).

Consider `COc1cc(C(C)=O)ccc1OCC(O)Cn1ccnc1` (configuration not stated), for which the Kd is > 4 mM (inactive). In the case of `COc1cc2nc(-c3cccs3)oc(=O)c2cc1OC`, the Kd was > 4 mM (inactive). As to `Cn1cnc2ccc([N+](=O)[O-])cc2c1=O`, the Kd is > 4 mM (inactive). For `O=C(O)c1cc(=O)c2cccc(O)c2[nH]1`, the Kd was > 4 mM (inactive). For `Cc1cc(O)c2c(c1)C(=O)c1cccc(O)c1C2=O`, the Kd is > 4 mM (inactive). Take `Cc1cc(OC(=O)c2ccco2)c([N+](=O)[O-])c(=O)[nH]1`: the Kd is > 4 mM (inactive).

With `Cc1ccc(OCC(=O)N2CCOCC2)c(C)c1`, the Kd entry is “inactive”. As for `CCOC(=O)Nc1ccc2c(C)cc(=O)oc2c1`, the Kd was > 4 mM (inactive). To `Cc1ccc2c(c1)CC[C@H]1CC(=O)CC[C@]21C` belongs > 4 mM (inactive). The value for `CCC1(CC)C(=O)N=C(N)NC1=O` was > 4 mM (inactive); that for `CC(=O)Nc1ccc(NC(=O)C2CC2)cc1` was > 4 mM (inactive). As to `O=S(=O)(Nc1cc(Cl)cc(Cl)c1)N1CCCCC1`, the Kd entry was “inactive”. Turning to `Nc1ccc(-c2cn3c(n2)SCC3)cc1`, the Kd is > 4 mM (inactive). The value for `c1ccc(CCc2nc(-c3ccncc3)no2)cc1` was > 4 mM (inactive); that for `NC(=O)CC(=O)NC12CC3CC(CC(C3)C1)C2` was > 4 mM (inactive); that for `O=c1sc2ccccc2n1CN1CCOCC1` was > 4 mM (inactive). The value for `Cc1ccc(C(=O)Nc2c[nH]c(=O)[nH]c2=O)cc1` was > 4 mM (inactive); that for `CNC(=O)c1cc(S(=O)(=O)N(C)C)ccc1Cl` was > 4 mM (inactive). To `CC1CN(C(=O)c2sc3ccccc3c2Cl)CC(C)O1` (configuration not stated) belongs “inactive”; to `O=C(COc1ccc(F)cc1)N1CCOCC1`, “inactive”; to `CC1/C(=N/O)C[C@@H]2C[C@H]1C2(C)C` (some centres not stated), > 4 mM (inactive). Consider `NC(=O)C(=O)NCc1ccc(Cl)cc1`, for which the Kd was > 4 mM (inactive). As to `CCOC(=O)c1c(C)cc(O)cc1O`, the Kd is > 4 mM (inactive). The value for `COc1ccc2c(c1OC)OC[C@@H](c1ccc(OC)c(OC)c1OC)C2` was > 4 mM (inactive); that for `CC(=O)Nc1ccc(S(N)(=O)=O)cc1` was > 4 mM (inactive). The value for `CC(CC(=O)NN)C1(O)CCCCC1` (configuration not stated) was > 4 mM (inactive); that for `O=C(O)c1cccc2c1OCCO2` was > 4 mM (inactive). As to `CC(=O)c1cccc(NC2=NCC(C)(C)S2)c1`, the Kd was > 4 mM (inactive). As to `NC(=O)CC1Nc2cccc3cccc(c23)NC1=O` (configuration not stated), the Kd is > 4 mM (inactive). On to `Nc1nncn1C(=O)c1ccccc1Cl`, for which the Kd is > 4 mM (inactive). With `Cc1cc(C)n(C/C=C/Cn2nc(C)cc2C)n1`, the Kd is > 4 mM (inactive).

On to `Cc1ccc(-c2c(C)n([O-])c3c([n+]2=O)CCCC3)o1`, for which the Kd was > 4 mM (inactive). On to `Oc1ccc2c(c1)OCO2`, for which the Kd is > 4 mM (inactive). As to `Cc1cc(C)n(C2CCS(=O)(=O)C2)n1` (configuration not stated), the Kd is > 4 mM (inactive).

Regarding `O=c1cc(CO)oc(CN2CCCCC2)c1O`, the Kd is > 4 mM (inactive). As for `COC(=O)CC1SC(=O)NC1=O` (configuration not stated), the Kd is > 4 mM (inactive). With `O=S(=O)(O)c1nc2ccccc2[nH]1`, the Kd is > 4 mM (inactive). As to `O=C(Nc1nncs1)C1(c2ccccc2)CCCC1`, the Kd was > 4 mM (inactive). Take `Cc1nc(-c2ccccc2)ncc1C(=O)O`: the Kd is > 4 mM (inactive). The value for `O=C(NCc1cccnc1)c1ccccn1` was > 4 mM (inactive); that for `COc1cc([C@@H]2c3cc4c(c(O)c3C[C@H]3COC(=O)[C@@H]32)OCO4)cc(OC)c1OC` was > 4 mM (inactive). For `CNC(=S)Nc1ccc(OC)cc1C`, the Kd was > 4 mM (inactive). For `Cc1nc(-c2ccccc2)sc1CO`, the Kd is > 4 mM (inactive). Consider `O=C(O)c1ccc2c(c1)OCO2`, for which the Kd is > 4 mM (inactive). Take `Cc1cc(N)cc(C)c1OCC(=O)N1CCOCC1`: the Kd is > 4 mM (inactive). The value for `Cc1noc(C)c1C(=O)N1CCc2ccccc21` was > 4 mM (inactive); that for `OCc1ccc2ncccc2c1` was > 4 mM (inactive); that for `O=C(CSc1ncn[nH]1)c1ccccc1` was > 4 mM (inactive). Take `NCc1ccc2c(c1)OCCO2`: the Kd was > 4 mM (inactive). To `COc1cc(NC(=O)c2ccccc2)c(C)cc1N` belongs > 4 mM (inactive); to `OCc1ccc(-c2cccs2)s1`, > 4 mM (inactive); to `OC1CCC(C(F)(F)F)CC1` (configuration not stated), > 4 mM (inactive). As for `O=S(=O)(Nc1ccc(F)cc1)N1CCOCC1`, the Kd was > 4 mM (inactive). The value for `O=C1NNC(=O)C2C3c4ccccc4C(c4ccccc43)C12` (configuration not stated) was > 4 mM (inactive); that for `O=C(CC1SC(=O)NC1=O)Nc1nccs1` (configuration not stated) was > 4 mM (inactive). The value for `S=c1[nH]nc(-c2cccnc2)n1C1CCCCC1` was > 4 mM (inactive).
